Measured values published in ChEMBL document CHEMBL1201862, “PubChem BioAssay data set” (2004).
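A five-concentration, 48-hour dose response in 96-well plates underlies each endpoint, interpolated linearly between surrounding concentrations. GI50 = concentration required for 50% inhibition of growth.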 Calls of active or inactive are those of the source. No stated cut-off is given here; in the data, active = GI50 up to about 1.1 µM and inactive = higher.

Key:
Assay in all cases: growth of human tumour cells (NCI), 48 h
M14 = system: M14
TK-10 = system: TK-10
MOLT-4 = system: MOLT-4
SK-OV-3 = system: SK-OV-3
HT-29 = system: HT-29
RXF 393 = system: RXF 393
KM12 = system: KM12
CCRF-CEM = system: CCRF-CEM
SF-539 = system: SF-539
COLO 205 = system: COLO 205
UACC-257 = system: UACC-257
SN12C = system: SN12C
OVCAR-8 = system: OVCAR-8
NCI-H226 = system: NCI-H226
RPMI-8226 = system: RPMI-8226
BT-549 = system: BT-549
U-251 = system: U-251
SW-620 = system: SW-620
MCF7 = system: MCF7
HL-60 = system: HL-60
LOX IMVI = system: LOX IMVI
ACHN = system: ACHN
MDA-MB-231 = system: MDA-MB-231
HCC 2998 = system: HCC 2998
SK-MEL-2 = system: SK-MEL-2
PC-3 = system: PC-3
HOP-62 = system: HOP-62
K562 = system: K562
MDA-N = system: MDA-N
A498 = system: A498
HCT-116 = system: HCT-116
UO-31 = system: UO-31
SF-295 = system: SF-295
CAKI-1 = system: CAKI-1
SNB-75 = system: SNB-75
T47D = system: T47D
IGROV-1 = system: IGROV-1
SF-268 = system: SF-268
OVCAR-4 = system: OVCAR-4
NCI-H23 = system: NCI-H23
MDA-MB-435 = system: MDA-MB-435
NCI-H522 = system: NCI-H522
EKVX = system: EKVX
OVCAR-5 = system: OVCAR-5
786-0 = system: 786-0
DU-145 = system: DU-145
HCT-15 = system: HCT-15
A549 = system: A549
SK-MEL-28 = system: SK-MEL-28
HOP-92 = system: HOP-92
SR = system: SR
OVCAR-3 = system: OVCAR-3
Hs-578T = system: Hs-578T
SK-MEL-5 = system: SK-MEL-5
NCI/ADR-RES = system: NCI/ADR-RES
NCI-H460 = system: NCI-H460
UACC-62 = system: UACC-62
SNB-19 = system: SNB-19
Malme-3M = system: Malme-3M

Measured: GI50

COC1=CC(=O)c2c(c(-c3csc(C)n3)cn2C)C1=O
6.34 µM: HCT-15
inactive: M14 5.58 µM | TK-10 29.9 µM | MOLT-4 31.9 µM | SK-OV-3 57.3 µM | HT-29 23.1 µM | RXF 393 18.3 µM | KM12 22.8 µM | CCRF-CEM 19.2 µM | SF-539 17.9 µM | COLO 205 19.8 µM | UACC-257 5.92 µM | SN12C 22.1 µM | OVCAR-8 22.6 µM | NCI-H226 33.6 µM | RPMI-8226 5.24 µM | BT-549 22.8 µM | U-251 69.7 µM | SW-620 35.9 µM | MCF7 21.7 µM | HL-60 2.13 µM | LOX IMVI 4.81 µM | ACHN 25.8 µM | MDA-MB-231 29.4 µM | HCC 2998 10.9 µM | SK-MEL-2 17.1 µM | PC-3 20.9 µM | HOP-62 30 µM | K562 25.4 µM | MDA-N 14.8 µM | A498 22.5 µM | HCT-116 23.4 µM | UO-31 27 µM | SF-295 6.75 µM | CAKI-1 29.3 µM | SNB-75 4.31 µM | T47D 26.5 µM | IGROV-1 20.7 µM | SF-268 27.2 µM | OVCAR-4 58.2 µM | NCI-H23 2.56 µM | MDA-MB-435 13.8 µM | NCI-H522 18.5 µM | EKVX 20 µM | OVCAR-5 49.5 µM | 786-0 36 µM | DU-145 4.85 µM | A549 2.15 µM | SK-MEL-28 44.5 µM | HOP-92 > 100 µM | SR 23.3 µM | OVCAR-3 9.14 µM | Hs-578T 21.6 µM | SK-MEL-5 1.72 µM | NCI/ADR-RES 22 µM | NCI-H460 3.43 µM | UACC-62 12.1 µM | SNB-19 8.04 µM

CO[C@@H]1[C@@H](OC2OC(C)C(OC3CC(C)(O)C(OC(=O)CC(C)C)C(C)O3)C(N(C)C)C2O)[C@@H](CC=O)C[C@@H](C)C(=O)/C=C/C2O[C@H]2C[C@@H](C)OC(=O)C[C@H]1OC(C)=O (stereo partly drawn)
inactive: M14 16.1 µM | TK-10 24.9 µM | MOLT-4 9.57 µM | SK-OV-3 39.2 µM | HT-29 12.3 µM | RXF 393 20.7 µM | Malme-3M 14 µM | KM12 17.3 µM | CCRF-CEM 9.77 µM | SF-539 19.6 µM | COLO 205 12.9 µM | UACC-257 17.2 µM | SN12C 15.4 µM | OVCAR-8 22.6 µM | NCI-H226 13 µM | RPMI-8226 17.7 µM | BT-549 17.6 µM | U-251 16.4 µM | SW-620 17.5 µM | MCF7 16.3 µM | HL-60 6.47 µM | LOX IMVI 15.8 µM | ACHN 18.7 µM | MDA-MB-231 24.8 µM | HCC 2998 17.7 µM | SK-MEL-2 18.8 µM | PC-3 15.5 µM | HOP-62 19 µM | K562 12.1 µM | MDA-N 15.2 µM | A498 23 µM | HCT-116 14.9 µM | UO-31 20.7 µM | SF-295 24.7 µM | SNB-75 31.6 µM | T47D 18.7 µM | IGROV-1 10.8 µM | SF-268 79.1 µM | OVCAR-4 15.2 µM | NCI-H23 18.9 µM | MDA-MB-435 17.7 µM | NCI-H522 16.6 µM | EKVX 22.4 µM | OVCAR-5 17.1 µM | 786-0 20 µM | DU-145 14.6 µM | A549 32 µM | SK-MEL-28 18.5 µM | HOP-92 4.46 µM | SR 11.3 µM | OVCAR-3 14.3 µM | Hs-578T 37.4 µM | SK-MEL-5 15.3 µM | NCI/ADR-RES 31 µM | NCI-H460 16.8 µM | UACC-62 21.4 µM | SNB-19 22 µM
18.6 µM: HCT-15

COC(=O)c1cc(C)n(CN(Cn2nc(C(=O)OC)cc2C)c2ccccc2)n1
18 µM: HCT-15
inactive: M14 32.7 µM | TK-10 > 100 µM | MOLT-4 13.4 µM | SK-OV-3 > 100 µM | HT-29 16.7 µM | RXF 393 20.1 µM | Malme-3M 43.2 µM | KM12 29.4 µM | CCRF-CEM 16 µM | SF-539 17.7 µM | COLO 205 16 µM | UACC-257 33.3 µM | SN12C 55.1 µM | OVCAR-8 19.4 µM | RPMI-8226 17.3 µM | BT-549 31 µM | U-251 39 µM | SW-620 29.6 µM | MCF7 28.1 µM | HL-60 4.7 µM | LOX IMVI 7 µM | ACHN 18.7 µM | MDA-MB-231 > 100 µM | SK-MEL-2 36.1 µM | PC-3 28.3 µM | HOP-62 97.3 µM | K562 20 µM | MDA-N 38.5 µM | A498 > 100 µM | HCT-116 19.6 µM | UO-31 18.3 µM | SF-295 32.8 µM | CAKI-1 37.8 µM | T47D 22 µM | IGROV-1 43 µM | SF-268 34 µM | OVCAR-4 18.4 µM | NCI-H23 25.2 µM | MDA-MB-435 42.9 µM | NCI-H522 39 µM | EKVX > 100 µM | OVCAR-5 48.4 µM | 786-0 24.5 µM | DU-145 25.9 µM | A549 73.3 µM | SK-MEL-28 32.8 µM | HOP-92 66.1 µM | SR 10 µM | OVCAR-3 > 100 µM | Hs-578T > 100 µM | SK-MEL-5 36 µM | NCI/ADR-RES 21.2 µM | NCI-H460 57.9 µM | UACC-62 15.1 µM | SNB-19 > 100 µM

Cn1c(=O)c2c(nc3n(Cc4ccccc4)c(=O)c(Br)cn23)n(C)c1=O
> 100 µM: HCT-15
inactive: M14 > 100 µM | TK-10 > 100 µM | MOLT-4 > 100 µM | HT-29 > 100 µM | RXF 393 > 100 µM | KM12 > 100 µM | CCRF-CEM > 100 µM | SF-539 > 100 µM | COLO 205 > 100 µM | UACC-257 > 100 µM | SN12C > 100 µM | OVCAR-8 > 100 µM | NCI-H226 > 100 µM | RPMI-8226 > 100 µM | BT-549 > 100 µM | U-251 > 100 µM | SW-620 > 100 µM | MCF7 > 100 µM | HL-60 > 100 µM | LOX IMVI > 100 µM | ACHN > 100 µM | MDA-MB-231 > 100 µM | HCC 2998 > 100 µM | SK-MEL-2 > 100 µM | PC-3 > 100 µM | HOP-62 80.5 µM | K562 > 100 µM | MDA-N > 100 µM | A498 > 100 µM | HCT-116 > 100 µM | UO-31 > 100 µM | SF-295 > 100 µM | CAKI-1 > 100 µM | SNB-75 > 100 µM | T47D > 100 µM | IGROV-1 > 100 µM | SF-268 > 100 µM | OVCAR-4 > 100 µM | NCI-H23 > 100 µM | MDA-MB-435 > 100 µM | NCI-H522 > 100 µM | EKVX > 100 µM | OVCAR-5 > 100 µM | 786-0 > 100 µM | DU-145 > 100 µM | A549 > 100 µM | SK-MEL-28 > 100 µM | HOP-92 > 100 µM | SR 1.71 µM | OVCAR-3 > 100 µM | Hs-578T > 100 µM | SK-MEL-5 > 100 µM | NCI/ADR-RES > 100 µM | NCI-H460 > 100 µM | UACC-62 > 100 µM | SNB-19 > 100 µM

C/C(=N\NC(=S)N1CCN(c2ccccn2)CC1)c1cccc(C)n1
inactive: TK-10 7.78 µM | SK-OV-3 8.65 µM | RXF 393 1.32 µM | Malme-3M 2.59 µM | KM12 3.1 µM | SF-539 1.27 µM | SN12C 7.98 µM | NCI-H226 2.06 µM | BT-549 5.26 µM | LOX IMVI 2.15 µM | ACHN 3 µM | HCC 2998 11.9 µM | SK-MEL-2 2.15 µM | HOP-62 6.31 µM | MDA-N 3.14 µM | A498 2.75 µM | UO-31 9.14 µM | SF-295 2.9 µM | SNB-75 3.84 µM | SF-268 1.51 µM | NCI-H23 5.58 µM | MDA-MB-435 3.61 µM | OVCAR-5 4.03 µM | 786-0 1.9 µM | DU-145 2.85 µM | A549 3.48 µM | SK-MEL-28 7.1 µM | HOP-92 3.81 µM | SR 1.44 µM | Hs-578T 12.6 µM | SK-MEL-5 1.53 µM | UACC-62 2.23 µM | SNB-19 7.26 µM
< 0.01 µM: HCT-15
active: M14 0.261 µM | MOLT-4 < 0.01 µM | HT-29 < 0.01 µM | CCRF-CEM < 0.01 µM | COLO 205 < 0.01 µM | RPMI-8226 < 0.01 µM | U-251 < 0.01 µM | SW-620 < 0.01 µM | MCF7 < 0.01 µM | HL-60 0.0115 µM | MDA-MB-231 < 0.01 µM | PC-3 < 0.01 µM | K562 0.585 µM | HCT-116 < 0.01 µM | T47D 0.528 µM | IGROV-1 < 0.01 µM | NCI-H522 0.0421 µM | OVCAR-3 < 0.01 µM | NCI/ADR-RES < 0.01 µM | NCI-H460 1.03 µM
